Results published in the supplement of paper PMC3937590.

What was measured:
Experiment in all cases: -log10 GI50 (growth inhibition 50%) (-log10(M)); higher = more potent growth inhibition
[1] = tested on: T47D_KBluc
Method in brief: (§1)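 A value carrying a < qualifier equals the top dose tested. Each compound was tested in triplicate on breast cancer cell lines for 72 hours at nine doses in 1:5 serial dilution, using a luminescence read-out against a time-zero plate. Nonlinear least squares fitting of a Gompertz curve gave GI50, the molar concentration causing the set level of growth inhibition, which is reported as its negative logarithm. The logarithm is base 10.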

[2] = tested on: AU565
Method in brief: as §1

[3] = tested on: HCC1419
Method in brief: as §1

[4] = tested on: BT549
Method in brief: as §1

[5] = tested on: MDAMB231
Method in brief: as §1

[6] = tested on: SUM159PT
Method in brief: as §1

[7] = tested on: HCC1395
Method in brief: as §1

[8] = tested on: HCC2185
Method in brief: as §1

[9] = tested on: SUM1315MO2
Method in brief: as §1

[10] = tested on: LY2
Method in brief: as §1

[11] = tested on: SUM185PE
Method in brief: as §1

[12] = tested on: MCF12A
Method in brief: as §1

[13] = tested on: MDAMB415
Method in brief: as §1

[14] = tested on: SUM52PE
Method in brief: as §1

[15] = tested on: 600MPE
Method in brief: as §1

[16] = tested on: BT474
Method in brief: as §1

[17] = tested on: 184B5
Method in brief: as §1

[18] = tested on: MDAMB361
Method in brief: as §1

[19] = tested on: SUM229PE
Method in brief: as §1

[20] = tested on: HCC1569
Method in brief: as §1

Structure (SMILES)	-log10 GI50 [1]	-log10 GI50 [2]	-log10 GI50 [3]	-log10 GI50 [4]	-log10 GI50 [5]	-log10 GI50 [6]	-log10 GI50 [7]	-log10 GI50 [8]	-log10 GI50 [9]	-log10 GI50 [10]	-log10 GI50 [11]	-log10 GI50 [12]	-log10 GI50 [13]	-log10 GI50 [14]	-log10 GI50 [15]	-log10 GI50 [16]	-log10 GI50 [17]	-log10 GI50 [18]	-log10 GI50 [19]	-log10 GI50 [20]
CCN(CC)CCNC(=O)c1c(C)[nH]c(/C=C2\C(=O)Nc3ccc(F)cc32)c1C [Sunitinib malate]	5.12	5.42	4.72	5.29	5.44	5.81	5.35	4.7	5.12	5.14	5.98	5.19	5.25	5.94	5.4	4.78	5.28	4.92	5.46	5.14
Cc1cc(Nc2cc(N3CCN(C)CC3)nc(Sc3ccc(NC(=O)C4CC4)cc3)n2)n[nH]1 [VX-680]	4.49	5.66	4.81	5.75	4.95	6.47	5.21	6.48	5.8	5.21	5.62	6.33	5.58	6.42	5.06	4.84	5.74	5.1	6.47	5.68
O=C(CCCCCCC(=O)Nc1ccccc1)NO [Vorinostat]	3.99	4.08	4.27	3.83	4.11	3.92	3.49	4.28	3.77	3.86	4.42	3.77	3.96	4.73	4.18	4.27	3.84	4.26	4.02	3.98
